Literature values in US20260335285A1, “A TOPICAL COMPOSITION COMPRISING CHLORINE E6 AND ZINC L-PYROGLUTAMATE” (ZXA GROUP LTD., priority 2022, published 2026).

Details: known in the art; topical

delivery into the skin: inefficient delivery into the skin
Compound: C=Cc1c(C)c2cc3nc(c(CC(=O)O)c4[nH]c(cc5nc(cc1[nH]2)C(C)=C5CC)c(C)c4C(=O)O)[C@@H](CCC(=O)O)[C@@H]3C [chlorine e6, (17S,18S)-18-(2-carboxyethyl)-20-(carboxymethyl)-12-ethenyl-7-ethyl-3,8,13,17-tetramethyl-17,18,22,23-tetrahydroporphyrin-2-carboxylic acid]
